According to paper PMC12527922, “Cocaine chemogenetics blunts drug-seeking by synthetic physiology” (Nature, 2025):

Tested on: [^18F]fallypride binding at D2/D3 receptors (extracellular dopamine)
Assay: [^18F]fallypride PET, rats with coca-5HT3 in the LHb and controls
Type: in vivo, rat
Protocol: Male Sprague–Dawley rats were anaesthetized with isoflurane (1.5-2%) and then placed onto a stereotaxic frame (Kopf) and injected with AAV5-Syn::coca-5HT3-IRES-mCherry (0.5 µl, 4.95 × 10^12 vg per ml) into the LHb (AP relative to bregma, −3.8 mm; ML, ±0.7 mm; DV, −5.25 mm, at a 10° angle) (n = 5) or underwent sham surgery (n = 9). Male Th-cre rats were anaesthetized with isoflurane (1.5–2%) and then placed onto a stereotaxic frame (Kopf) and injected with AAV1-Syn::FLEX-coca-GlyR-IRES-mCherry (0.5 µl, 6 × 10^12 vg per ml) into the VTA (AP, −6.0 mm relative to bregma; ML, ±1.9 mm; DV, −8.3 mm at a 10° angle) (n = 9) or underwent sham surgery (n = 6). Approximately 3 weeks later, the rats were anaesthetized, placed inside the PET scanner (Mediso NanoScan PET/CT), injected with [^18F]fallypride (~13 MBq) and then scanned using PET. [^18F]fallypride reaches steady-state by around 45 min after its injection and then remains stable for at least 150 min[60]. […] The PET data were reconstructed and corrected for dead-time and radioactive decay and then co-registered to an magnetic resonance imaging template as previously described[46],[60],[61]. Co-registered images were analysed using one-way ANOVA and the resulting parametric images were filtered for statistically significant (P < 0.01) clusters larger than 100 contiguous voxels. All statistical parametric mapping (SPM) analyses were performed using MATLAB R2016 (MathWorks) and SPM12 (University College London)[62]. Next, additional quantitative assessments of PET images were performed using the PMOD software environment (PMOD Technologies). We generated time–activity curves using the co-registered dynamic PET images and the significant voxel clusters defined by the voxel-wise SPM analysis as the volume of interest. The standardized uptake value (SUV) was calculated using the equation SUV = C/(dose/BW) where C is the tissue concentration of [^18F]fallypride (kBq cm^−3), dose is the administered dose (MBq) and BW (kg) is the animal’s body weight. Statistical analyses were performed using Prism 10 (GraphPad).

What does the source list for `COC(=O)[C@H]1[C@@H](OC(=O)c2ccccc2)C[C@@H]2CC[C@H]1N2C` [cocaine]?
Cerebellum, Mean (Coca-5HT3, Time 60 min): 111.27; Striatum, Mean (Coca-5HT3, Time 60 min): 100.47; Cerebellum, Mean (Coca-5HT3, Time 63 min): 107.441; Striatum, Mean (Coca-5HT3, Time 63 min): 99.116; Cerebellum, Mean (Coca-5HT3, Time 66 min): 105.193; Striatum, Mean (Coca-5HT3, Time 66 min): 105.45; Cerebellum, Mean (Coca-5HT3, Time 69 min): 101.891; Striatum, Mean (Coca-5HT3, Time 69 min): 101.914; Cerebellum, Mean (Coca-5HT3, Time 72 min): 100.511; Striatum, Mean (Coca-5HT3, Time 72 min): 99.6684; Cerebellum, Mean (Coca-5HT3, Time 75 min): 97.2849; Striatum, Mean (Coca-5HT3, Time 75 min): 101.446; Cerebellum, Mean (Coca-5HT3, Time 78 min): 98.3773; Striatum, Mean (Coca-5HT3, Time 78 min): 97.1795; Cerebellum, Mean (Coca-5HT3, Time 81 min): 97.6857; Striatum, Mean (Coca-5HT3, Time 81 min): 99.4438; Cerebellum, Mean (Coca-5HT3, Time 84 min): 92.2137; Striatum, Mean (Coca-5HT3, Time 84 min): 99.5545; Cerebellum, Mean (Coca-5HT3, Time 87 min): 94.6333; Striatum, Mean (Coca-5HT3, Time 87 min): 100.176; Cerebellum, Mean (Coca-5HT3, Time 90 min): 93.4987; Striatum, Mean (Coca-5HT3, Time 90 min): 95.582; Cerebellum, Mean (Coca-5HT3, Time 92 min): 99.4012; Striatum, Mean (Coca-5HT3, Time 92 min): 95.8906; Cerebellum, Mean (Coca-5HT3, Time 94 min): 96.5331; Striatum, Mean (Coca-5HT3, Time 94 min): 92.7294; Cerebellum, Mean (Coca-5HT3, Time 96 min): 96.1496; Striatum, Mean (Coca-5HT3, Time 96 min): 97.7961; Cerebellum, Mean (Coca-5HT3, Time 98 min): 96.6515; Striatum, Mean (Coca-5HT3, Time 98 min): 98.5867; Cerebellum, Mean (Coca-5HT3, Time 100 min): 92.3336; Striatum, Mean (Coca-5HT3, Time 100 min): 97.1381; Cerebellum, Mean (Coca-5HT3, Time 104 min): 94.2368; Striatum, Mean (Coca-5HT3, Time 104 min): 97.3152; Cerebellum, Mean (Coca-5HT3, Time 106 min): 94.1983; Striatum, Mean (Coca-5HT3, Time 106 min): 95.2722; Cerebellum, Mean (Coca-5HT3, Time 110 min): 94.753; Striatum, Mean (Coca-5HT3, Time 110 min): 92.686; Cerebellum, Mean (Coca-5HT3, Time 112 min): 89.5645; Striatum, Mean (Coca-5HT3, Time 112 min): 94.0331; Cerebellum, Mean (Coca-5HT3, Time 116 min): 89.6884; Striatum, Mean (Coca-5HT3, Time 116 min): 93.7732; Cerebellum, Mean (Coca-5HT3, Time 118 min): 92.5349; Striatum, Mean (Coca-5HT3, Time 118 min): 94.2486; Cerebellum, Mean (Coca-5HT3, Time 120 min): 85.32; Striatum, Mean (Coca-5HT3, Time 120 min): 92.7482; Cerebellum, Mean (Control, Time 60 min): 103.946; Striatum, Mean (Control, Time 60 min): 104.425; Cerebellum, Mean (Control, Time 63 min): 103.573; Striatum, Mean (Control, Time 63 min): 105.053; Cerebellum, Mean (Control, Time 66 min): 103.781; Striatum, Mean (Control, Time 66 min): 101.615; Cerebellum, Mean (Control, Time 69 min): 101.695; Striatum, Mean (Control, Time 69 min): 102.645; Cerebellum, Mean (Control, Time 72 min): 100.786; Striatum, Mean (Control, Time 72 min): 99.1445; Cerebellum, Mean (Control, Time 75 min): 98.0752; Striatum, Mean (Control, Time 75 min): 97.188; Cerebellum, Mean (Control, Time 78 min): 100.961; Striatum, Mean (Control, Time 78 min): 99.7495; Cerebellum, Mean (Control, Time 81 min): 99.7275; Striatum, Mean (Control, Time 81 min): 97.1175; Cerebellum, Mean (Control, Time 84 min): 97.0682; Striatum, Mean (Control, Time 84 min): 97.2682; Cerebellum, Mean (Control, Time 87 min): 95.0129; Striatum, Mean (Control, Time 87 min): 98.2036; Cerebellum, Mean (Control, Time 90 min): 95.374; Striatum, Mean (Control, Time 90 min): 97.5908; Cerebellum, Mean (Control, Time 92 min): 99.2942; Striatum, Mean (Control, Time 92 min): 96.7723; Cerebellum, Mean (Control, Time 94 min): 98.6955; Striatum, Mean (Control, Time 94 min): 94.2988; Cerebellum, Mean (Control, Time 96 min): 97.5545; Striatum, Mean (Control, Time 96 min): 90.3041; Cerebellum, Mean (Control, Time 98 min): 95.1481; Striatum, Mean (Control, Time 98 min): 92.8392; Cerebellum, Mean (Control, Time 100 min): 95.7886; Striatum, Mean (Control, Time 100 min): 87.2087; Cerebellum, Mean (Control, Time 104 min): 93.5542; Striatum, Mean (Control, Time 104 min): 88.7106; Cerebellum, Mean (Control, Time 106 min): 95.3248; Striatum, Mean (Control, Time 106 min): 84.6758; Cerebellum, Mean (Control, Time 110 min): 94.4655; Striatum, Mean (Control, Time 110 min): 84.755; Cerebellum, Mean (Control, Time 112 min): 92.6418; Striatum, Mean (Control, Time 112 min): 85.4315; Cerebellum, Mean (Control, Time 116 min): 92.1838; Striatum, Mean (Control, Time 116 min): 85.918; Cerebellum, Mean (Control, Time 118 min): 92.0673; Striatum, Mean (Control, Time 118 min): 82.9007; Cerebellum, Mean (Control, Time 120 min): 91.4483; Striatum, Mean (Control, Time 120 min): 84.8826; [^18F]fallypride binding, cocaine versus saline (control rats, cocaine 3 mg per kg i.v., nucleus accumbens and ventromedial dorsal striatum voxels): significantly decreased
